Reference: patent US5693668A, “Acetylcholinesterase inhibitors” (priority 1989, dated 1997)
Like-named read-outs stand apart in the source and are kept apart here.

Format: in vitro ADME, hairless mouse (Outbred Nude mouse)
Details: for skin permeation rate: 50% w/w drug loading
Procedure: An in vitro excised hairless mouse skin/modified Franz Diffusion Cell model was used to evaluate skin permeability of neat MDL 73,745, the title compound of Example 1, and permeation profile of MDL 73,745 from various prototype transdermal delivery systems. Prototype transdermal delivery systems containing MDL 73,745 were prepared in various acrylic, silastic, ethylene vinyl acetate copolymer, and rubber based pressure sensitive adhesives and evaluated in the in vitro skin permeation cell model.
In vitro skin permeation model: For this study an in vitro finite-dose glass diffusion cell (modified Franz Diffusion Cell)/freshly excised hairless mouse skin model was used. The diffusion consists of two parts: (i) a receptor compartment which is an upright reservoir jacketed by a glass chamber on the outside. Experiments were conducted at 37° C. by circulating thermostatically controlled water at 37° C. in this jacket and (ii) donor cap, which is clamped together with the receptor compartment with a metal clamp. A piece of skin/(transdermal formulation) is sandwiched between the donor and the receptor compartments and clamped together. Sampling from the receptor compartment is taken at predetermined time intervals through the sampling port.
Hairless mouse: Outbred Nude mouse {CRL NU/NU (CD1) BR, 6-8 weeks old, male} from Charles River, Mass.
Excised skin: Immediately following sacrifice by CO2 gas, a portion (3.5×3.5 cm) of the full-thickness abdominal skin was carefully excised from the hairless mouse. The dermal side of the skin was carefully cleaned of any adhering subcutaneous tissue and/or blood vessels. Extreme care was taken not to scratch or damage the stratum corneum. Before mounting onto the diffusion cell, each piece of skin was carefully inspected to insure that the skin was not damaged.
Dermal elution media: A 5% solution of polyethylene glycol 20 Oleyl ether (Trycol®, Emery) in 0.9% sodium chloride was used as the receptor medium for the modified Franz Diffusion Cells. […] Temperature of the dermal elution media was maintained at 37° C. using a thermostated constant temperature circulating water bath.
Skin permeation profile from neat MDL 73,745 and from Prototype formulations: Full-thickness skin, prepared freshly as outlined above, was mounted in a modified Franz Diffusion Cell with the stratum corneum side facing upward. To study the permeation profile of neat MDL 73,745, 50 μl of MDL 73,745 was uniformly applied onto the stratum corneum. The donor cap was placed over the skin and the whole assembly was then securely clamped together. The donor cap was covered with a piece of aluminum foil to reduce the volatilization of MDL 73,745. To evaluate the skin permeation profile of MDL 73,745 from a prototype transdermal formulation, a unit of prototype transdermal system (about 4.9 cm^2 circular) containing MDL 73,745 was placed onto the skin with the drug releasing side in intimate contact with the stratum corneum (slight pressure was applied to insure good contact). The donor cap was placed over the skin and the whole assembly was then securely clamped together.
Dermal elution medium (5% w/w Trycol® in normal saline) was then introduced into the receptor compartment through the sampling port. At predetermined time intervals, the entire volume of the receptor solution was withdrawn and immediately replaced with the same volume of fresh, drug free dermal elution medium (5% w/w Trycol® in normal saline), maintained at 37° C. The concentration of MDL 73,745 was determined by a sensitive HPLC method described under Analytical Method section below.
Analytical Method: An automated high performance liquid chromatograph equipped with a gradient pump (Waters Model 600E), autoinjector/sampler (Waters, Model 715 WISP), and a variable wavelength UV detector (Waters, Model 490) was used. The autoinjector/sampler was maintained at 2° C. to reduce possible evaporation/degradation of MDL 73,745 in the sample. […]

## C[Si](C)(C)c1cccc(C(=O)C(F)(F)F)c1 [MDL 73,745, 2,2,2-Trifluoro-1-(3-trimethylsilylphenyl) ethanone]
3M acrylic adhesive #9871, 50% w/w drug loading
  rate of transdermal delivery: 13.01 μg/cm^2 /hr
3M acrylic adhesive #9871, 60% w/w drug loading
  rate of transdermal delivery: 21.04 μg/cm^2 /hr
3M acrylic adhesive #9871 prototypes
  transdermal delivery profile: constant, zero-order profile
Prototype in Gelva 737
  skin permeation rate: 12.95 μg/cm^2 /hr
Prototype in Gelva 788
  skin permeation rate: 8.63 μg/cm^2 /hr
DuroTak 72-9718 rubber based PSA prototypes
  skin permeation profile: constant, zero-order profile
DuroTak 72-9718 rubber based PSA, 20% w/w drug loading
  rate of transdermal delivery: 12.92 μg/cm^2 /hr
Eva-Tak 72-9660 prototype containing 50% drug
  rate of transdermal delivery: 33.86 μg/cm^2 /hr
Eva-Tak 72-9660 prototype containing 60% drug
  rate of transdermal delivery: 20.59 μg/cm^2 /hr
Eva-Tak 72-9660 prototypes, throughout duration of patch application
  transdermal delivery profile: controlled, zero-order fashion
Nacor 38-4515 prototype containing 50% w/w drug
  rate of transdermal delivery: 19.18 μg/cm^2 /hr
Neat MDL 73,745
  transport profile through skin: controlled zero order fashion
Neat MDL 73,745, 50 μl on stratum corneum
  rate of transdermal delivery: 208.21 μg/cm^2 /hr
Prototypes in various acrylic PSA
  period of controlled, zero-order transdermal delivery: at least 24 hours
